Results on 7 compounds are retold here after patent publication US5952349A, “Muscarinic antagonists for treating memory loss” (Schering Corporation, priority 1997, dated 1999).

Structures are written as SMILES. Where two headings read alike, the source gives them in different places.

Assay [1] has as its target T1, cloned human m1 muscarinic receptor (Homo sapiens, UniProt P11229).
T1 construct: expressed in transfected cells; host or cells: CHO cells, stably transfected (membranes)
T1 sequence (P11229 1-460): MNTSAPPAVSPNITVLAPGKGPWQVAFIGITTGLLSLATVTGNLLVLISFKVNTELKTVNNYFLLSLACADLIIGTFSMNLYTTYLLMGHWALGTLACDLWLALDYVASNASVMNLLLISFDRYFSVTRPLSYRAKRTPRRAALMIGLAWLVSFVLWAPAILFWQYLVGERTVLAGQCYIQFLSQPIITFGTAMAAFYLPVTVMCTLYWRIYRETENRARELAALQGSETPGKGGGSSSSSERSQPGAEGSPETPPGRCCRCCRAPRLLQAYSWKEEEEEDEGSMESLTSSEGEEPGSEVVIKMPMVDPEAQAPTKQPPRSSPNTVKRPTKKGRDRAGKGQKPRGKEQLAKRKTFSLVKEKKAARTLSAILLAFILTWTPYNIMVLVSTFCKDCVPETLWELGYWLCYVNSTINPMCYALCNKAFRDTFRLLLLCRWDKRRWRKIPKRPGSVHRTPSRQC
Briefly: Muscarinic binding activity: inhibition of 3H-QNB binding, m1.

For assay [2], the target named is T2, cloned human m2 muscarinic receptor (Homo sapiens, UniProt P08172).
T2 construct: expressed in transfected cells; host or cells: CHO cells, stably transfected (membranes)
T2 sequence (P08172 1-466): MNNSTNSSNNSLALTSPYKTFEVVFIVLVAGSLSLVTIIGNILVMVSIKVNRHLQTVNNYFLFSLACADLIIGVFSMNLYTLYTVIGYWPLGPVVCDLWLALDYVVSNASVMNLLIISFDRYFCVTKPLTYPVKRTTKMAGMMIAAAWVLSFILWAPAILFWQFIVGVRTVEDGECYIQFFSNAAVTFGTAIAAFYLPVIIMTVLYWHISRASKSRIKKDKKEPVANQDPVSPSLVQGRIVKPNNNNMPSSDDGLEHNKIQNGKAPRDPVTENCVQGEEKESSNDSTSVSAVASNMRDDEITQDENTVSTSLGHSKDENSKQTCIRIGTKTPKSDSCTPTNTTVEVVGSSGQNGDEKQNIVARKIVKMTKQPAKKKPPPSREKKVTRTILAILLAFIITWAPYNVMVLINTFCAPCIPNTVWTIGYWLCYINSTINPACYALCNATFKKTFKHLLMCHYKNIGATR
Put plainly: Muscarinic binding activity: inhibition of 3H-QNB binding, m2 (and m2 selectivity). As to conditions: for m2 Selectivity Ratio (Ki,m1/Ki,m2): Ki for m1 divided by Ki for m2, higher = greater m2 selectivity.

Assay [3] has as its target T3, cloned human m4 muscarinic receptor (Homo sapiens, UniProt P08173).
T3 construct: expressed in transfected cells; host or cells: CHO cells, stably transfected (membranes)
T3 sequence (P08173 1-479): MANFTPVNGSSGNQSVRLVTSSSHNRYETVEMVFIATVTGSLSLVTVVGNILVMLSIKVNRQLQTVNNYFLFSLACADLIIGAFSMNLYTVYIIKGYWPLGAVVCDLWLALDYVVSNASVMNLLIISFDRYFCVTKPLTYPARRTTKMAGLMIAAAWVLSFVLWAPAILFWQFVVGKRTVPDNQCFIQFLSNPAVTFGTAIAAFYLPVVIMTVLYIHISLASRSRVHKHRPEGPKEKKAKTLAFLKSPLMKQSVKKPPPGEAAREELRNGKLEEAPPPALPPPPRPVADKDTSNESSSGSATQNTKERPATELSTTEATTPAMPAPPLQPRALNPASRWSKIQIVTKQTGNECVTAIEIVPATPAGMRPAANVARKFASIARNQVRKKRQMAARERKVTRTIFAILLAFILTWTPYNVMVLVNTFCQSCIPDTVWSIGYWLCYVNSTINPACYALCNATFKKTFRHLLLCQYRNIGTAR
Put plainly: Muscarinic binding activity: inhibition of 3H-QNB binding, m4 (and m4 selectivity). To be noted: for m4 Selectivity Ratio (Ki,m4/Ki,m2): Ki for m4 divided by Ki for m2.

Another assay deals with m2 muscarinic. As to conditions: Baumgold et al., Eur. J. of Pharmacol., 251, (1994) 315-317; cited from earlier work.
Setting [4] is: 3H-QNB binding, membranes of transfected CHO cells, 25° C., 90 minutes, pH 7.4, read-out: Ki, m1.
The mark [5] stands for this setting: 3H-QNB binding, membranes of transfected CHO cells, 25° C., 90 minutes, pH 7.4, read-out: Ki, m2.
Where [6] appears, read: 3H-QNB binding, membranes of transfected CHO cells, 25° C., 90 minutes, pH 7.4, read-out: Ki, m4.

Take `N#CN(c1ccc(S(=O)(=O)C2CCCCC2)cc1)C1CCN(C2CCCCC2)CC1` [Example 2AK]: the Ki in assay [1] (setting [4]) is 232 nM; in assay [2] (setting [5]), 18.8 nM; in assay [3] (setting [6]), 25.5 nM. In addition, in assay [2], the “m2 Selectivity Ratio (Ki,m1/Ki,m2)” value was 17.2. Moreover, the “m4 Selectivity Ratio (Ki,m4/Ki,m2)” value in assay [3] was 1.4.

On to `COc1ccc([S+]([O-])c2ccc(N(C#N)C3CCN(C4CCCCC4)CC3)cc2)cc1` (stereo not shown) [Example 2E], for which the Ki in assay [1] (setting [4]) was found to be 189 nM; in assay [2] (setting [5]), 9 nM; in assay [3] (setting [6]) it was 39.3 nM. In assay [2], the “m2 Selectivity Ratio (Ki,m1/Ki,m2)” value stood at 21.0. For the same compound, the “m4 Selectivity Ratio (Ki,m4/Ki,m2)” value in assay [3] was determined as 4.4.

For `CC(=O)Nc1ccc([S+]([O-])c2ccc(N(C#N)C3CCN(C4CCCCC4)CC3)cc2)cc1` (stereo not shown) [Example 2AM], the Ki in assay [1] (setting [4]) worked out at 212 nM; in assay [2] (setting [5]), 13.7 nM; in assay [3] (setting [6]), 41.4 nM. Further, the “m2 Selectivity Ratio (Ki,m1/Ki,m2)” value in assay [2] was 15.5. In addition, the “m4 Selectivity Ratio (Ki,m4/Ki,m2)” value in assay [3] stood at 3.0.

The compound `C=CCN(c1ccc(S(=O)(=O)c2ccc(OC)cc2)cc1)C1CCN(C2CCCCC2)CC1` [Example 2I] yielded an inhibition constant Ki in assay [1] of 47.1 nM. Further, in assay [2], the inhibition constant Ki is 3.7 nM and the “m2 Selectivity Ratio (Ki,m1/Ki,m2)” value came out at 12.7. In addition, in assay [3], the Ki is 10.1 nM and the “m4 Selectivity Ratio (Ki,m4/Ki,m2)” value was 2.7.

With `C[C@H]1CC[C@@H]2N(C1)C[C@H]1[C@@H]3C[C@H]4[C@@H](CC(=O)[C@H]5C[C@@H](Cl)CC[C@@]54C)[C@@H]3CC[C@H]1[C@]2(C)O` [3-α-chloroimperialine], the “m2 muscarinic antagonist selectivity” value with m2 muscarinic is reported as “highly selective m2 muscarinic antagonist”.

In the case of `N#CN(c1ccc(S(=O)(=O)c2ccc3c(c2)OCO3)cc1)C1CCN(C2CCCCC2)CC1` [Example 2AC], the Ki in assay [1] (setting [4]) turned out to be 10 nM; in assay [2] (setting [5]), 0.44 nM; in assay [3] (setting [6]), 1.6 nM. In assay [2], the “m2 Selectivity Ratio (Ki,m1/Ki,m2)” value is 22.7. Moreover, the “m4 Selectivity Ratio (Ki,m4/Ki,m2)” value in assay [3] amounted to 3.6.

As to `COc1ccc(S(=O)(=O)c2ccc(N(C)C3CCN(C4CCCCC4)CC3)cc2)cc1` [Example 2G], in assay [1], the Ki was determined as 285 nM. In assay [2], the inhibitory constant (Ki) turned out to be 15.2 nM and the “m2 Selectivity Ratio (Ki,m1/Ki,m2)” value came out at 18.8. Besides, in assay [3], the Ki stood at 50 nM and the “m4 Selectivity Ratio (Ki,m4/Ki,m2)” value was determined as 3.3.

As a reminder, the Ki is a dissociation constant, usually derived from enzyme kinetics or from competition with a known ligand.
